Test results as given in patent publication US5559209A, “Regulator regions of G proteins” (The General Hospital Corporation, priority 1993, dated 1996).
Blank lines part the entries; values can stand above or below the molecule they belong to. Where no end group is shown, it is not given here.

Legend:
[1] = system: somatostatin receptor/K+ channel linkage in human growth hormone-secreting pituitary adenoma cells; assay: Somatostatin-induced K+ currents, whole cell patch clamp; type: cell-based; conditions: 100 nM somatostatin, absence of anticouplone peptides
Procedure: Inhibition Of somatostatin receptor function. It is known that somatostatin induces K^+ channel activation in a manner sensitive to pertussis toxin in human growth hormone-secreting tumors (Yamashita et al., Am. J. Physiol. 253:E28-E32, 1987). The effect of each of ACGi2, ACGi3, ACGs, ACGo1, and ACGo2 on somatostatin-induced K^+ currents in human pituitary cells was measured using the patch clamp technique, as described below.
Three human growth hormone-secreting pituitary adenomas were obtained at transsphenoidal surgery. The tissue was minced into small pieces (less than 1 mm in diameter) and was treated with 1000 units/ml dispase (Wako, Japan). These dissociated cells (≈10^5 cells/ml) were seeded onto 35-mm culture dishes. […]
A whole cell variation of the patch electrode voltage clamp technique was used to record membrane currents (Hamill et al., Pfluger Arch. 391:85-100, […]). […] The liquid junction potential between the extracellular solution and the internal solution was directly measured using a 3M KCl electrode as a reference. […]
The intracellular solution that filled the inside of the pipet portion of the apparatus contained one of the following anticouplone peptides at 100 μM: ACGi2, ACGi3, ACGs, ACGo1, or ACGo2. The exterior of the cell was bathed with the extracellular solution containing 100 nM somatostatin while the outward K^+ current was monitored. […]

[2] = target: T1, Gi2 (Bos taurus, UniProt A7MBH9); assay: GTPγS binding assay, peptide 14-induced Gi2 activation; type: biochemical, bovine; conditions: 10 μM peptide variant, 10 nM Gi2, 30 μM peptide 14
T1 construct: trimeric Gi2 (i.e., Gi2 αβγ) purified from bovine brain to near homogeneity; from tissue; host or cells: bovine brain
Procedure: Materials and Methods The in vitro assays described below utilize the couplone portion of each of a number of G-coupled receptors, instead of an intact receptor molecule, as a means for activating the corresponding anticouplone or intact G-protein. Except as noted below, Gi2 used in this study was trimeric Gi2 (i.e., Gi2 αβγ) purified from bovine brain to near homogeneity (Katada et al., FEBS Lett. 213:353-358 (1987), stored in buffer A (20 mM hepes/NaOH (pH 7.4), 1 mM EDTA, and 0.7% CHAPS), and diluted≥10 fold for assays. The Gi2 used for the reconstitution experiment was trimeric Gi2 purified from bovine spleen to homogeneity and dissolved in buffer B (Morishita et al., 1989). Gi3 α (Morishita et al., Biochem. Biophys. Res. Commun. 172:249-255 (1990), was purified from bovine spleen and used in combination with 1.5-fold concentrated Gβγ (Katada et al., 1987). This preparation of Gi3 α was 10-20% contaminated by Gi1 α, but not by other G proteins. Trimeric Gs and Gβγ purified from bovine brain to near homogeneity (Katada et al., 1987) were also stored in buffer A.
GTPγS binding Assay--GTPγS binding to G proteins was assayed at 37° C. in 20 mM Hepes/NaOH buffer (pH 7.4) containing 130 μM MgCl2, 110 μM EDTA and 60 nM [^35 S]GTPγS, as described previously (Okamoto et al., 1990). GTPγS binding to polypeptides was negligible. The total amount of G protein was measured as maximal GTPγS binding at room temperature, as described (Okamoto et al., Cell 67:723-730, 1991a). [^35 S]GTPγS was purchased from DuPont-New England Nuclear. Binding of GTPγS to G proteins obeyed first-order kinetics according to the equation ln[(BT-B)/BT]=-kapp t, where B is the binding at time t and BT is the total binding observable at an infinite time. Thus, the apparent first-order rate constant for GTPγS binding (kapp), which is equal to the slope of the tangent to the GTPγS binding curve at time 0 and represents the actual GTPγS binding rate, was calculated from this equation.
In the experiment illustrated in FIG. 1A, 10 nM Gi2 was incubated with 30 μM peptide 14 (RVGLVRGEKARKGK; SEQ ID NO: 27), the couplone portion of the IGF-II receptor, in the presence of various concentrations of (.quadrature.) ACGi2 (DAVTDVIIKNNLKDC; SEQ ID NO: 3), (567 ) the control Gi2 α Glu297-Asp310 peptide (EAASYIQSKFEKLN; SEQ ID NO: 18), or (.diamond.) the control Gi2 α Lys346-Phe355 peptide (KNNLKDCGLF; SEQ ID NO: 19) for 5 min under the GTPγS binding assay conditions described above, and GTPγS binding to G proteins was measured. The effect of ACGi2 on Gi2 in the absence of peptide 14 is indicated by .box-solid.. Percent stimulation of GTPγS binding was calculated by subtracting the basal fractional binding and dividing by the stimulated fractional binding observed in the absence of ACGi2. The basal fractional binding (=0%) was 0.39 mol GTPγS binding/mol Gi /5 min (5 min^-1). The 100% increase represents the GTPγS binding of 0.85 (5 min^-1). Values in all figures represent the mean ±S.E. of three experiments.
To verify the notion that ACGi2 acts on Gi2 itself, and not on receptor sequences, two series of experiments were performed. First, the dose-response curve for peptide 14 action on Gi2 in the presence of various concentrations of ACGi2 was generated (FIG. 2A). Following incubation of 10 nM Gi2 with various concentrations of peptide 14 in the absence (.quadrature.) or presence of 10 μM (.diamond-solid.) or 30 μM (.box-solid.) ACGi2 for 5 min, GTPγS binding was assayed; fractional GTPγS binding to Gi2 is indicated in the figure.
The second series of experiments investigated the effect of ACGi2 on lower concentrations of Gi2 that had been activated by peptide 14 to the same extent (FIG. 2B). 1 nM Gi2 was incubated for 5 min with 3 μM peptide 14 in the presence of various concentrations of ACGi2, and GTPγS binding was measured. The fractional GTPγS binding at 0% and 100% in this experiment was 0.40 and 0.55 (5 min^-1), respectively. […]

[3] = system: T cell receptor; assay: OKT3-induced polyphosphoinositide turnover in Jurkat cells; type: cell-based, human; conditions: OKT3 1:100 for 5 min, no peptide
Procedure: Inhibition of T cell receptor function with ACGq. T cell receptor stimulation by monoclonal antibody OKT^3 in Jurkat cells, a line of human T cells, induces measurable polyphosphoinositide (PI) turnover. 10^7 cells were labelled with 5 μCi/ml [^3 H]myoinositol in inositol-free RPMI1640 for 12 hours. After incubating the cells with 500 μM ACGq, samples containing 5×10^5 cells were then exposed to the monoclonal antibody OKT3 (Ortho) at 1:100 dilution for 5 min. Perchloric acid was added to a final concentration of 10% to lyse the cells and terminate the reaction. Cell lysates were collected into tubes and brought to pH>8 by the addition of KOH. Following centrifugation of the lysates, the supernatants were passed over a DOWX anion exchange column (Muromachi Chemicals, Japan) to separate inositol polyphosphates (IPs) from other inositol metabolites, and the amount of [^3 H] label in the inositol trisphosphate (IP3) fraction assessed.

[4] = system: NRK (rat renal fibroblast) cells; assay: TGFβ-induced fibronectin secretion, immunoblot; type: cell-based; conditions: 50 pM TGFβ, 12 hours
Source text: Inhibition of TGFβ-induced matrix formation. The secretion of matrix proteins (in particular, fibronectin) by kidney, lung and liver cells may lead to sclerosis of those organs. Transforming growth factor-β (TGFβ), which stimulates the secretion of fibronectin, may therefore contribute to such sclerosis. Since the TGFβ receptor is a Go2 -coupled receptor, the ability of ACGo2 to inhibit the TGFβ-induced stimulation of fibronectin secretion by NRK (rat renal fibroblast) cells (Ignotz and Massague, J. Biol. Chem. 261:4337-4345, 1986) was assayed.
NRK cells were cultured in RPMI 1640 supplemented with 5% FCS in a CO2 -incubator at 37° C. The medium was replaced every two days. Cells were regularly subcultured by trypsin-EDTA before reaching confluency. In the experiments described below, the cells were grown in monolayer to confluency in 6-well culture plates (Corning, N.Y.), then incubated for 12 hours with RPMI 1640 plus 0.5% FCS, and for a further 12 hours with RPMI 1640 plus 0.5% FCS in the presence or absence of 50 pM TGFβ (R & D System, Minneapolis, Minn.), to which was added 100 μM ACGi2, ACGs, ACGo2, or ACGq. The medium from each well was collected and frozen at -20° C. until assay. Fibronectin secreted into each sample of medium was assessed by immunoblot as follows: […]

T1 sequence (A7MBH9 2-355 limits assumed): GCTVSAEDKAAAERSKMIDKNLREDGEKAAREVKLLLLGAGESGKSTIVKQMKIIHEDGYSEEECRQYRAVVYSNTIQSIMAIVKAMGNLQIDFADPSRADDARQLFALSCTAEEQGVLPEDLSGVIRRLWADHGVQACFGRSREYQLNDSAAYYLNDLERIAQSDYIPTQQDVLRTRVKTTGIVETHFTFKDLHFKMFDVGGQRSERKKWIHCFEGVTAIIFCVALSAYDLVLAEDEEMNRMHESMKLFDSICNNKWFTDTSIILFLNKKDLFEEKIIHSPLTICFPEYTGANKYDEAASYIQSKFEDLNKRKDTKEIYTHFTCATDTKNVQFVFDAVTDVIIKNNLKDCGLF
T1 sequence (P62871 2-340 partner limits assumed): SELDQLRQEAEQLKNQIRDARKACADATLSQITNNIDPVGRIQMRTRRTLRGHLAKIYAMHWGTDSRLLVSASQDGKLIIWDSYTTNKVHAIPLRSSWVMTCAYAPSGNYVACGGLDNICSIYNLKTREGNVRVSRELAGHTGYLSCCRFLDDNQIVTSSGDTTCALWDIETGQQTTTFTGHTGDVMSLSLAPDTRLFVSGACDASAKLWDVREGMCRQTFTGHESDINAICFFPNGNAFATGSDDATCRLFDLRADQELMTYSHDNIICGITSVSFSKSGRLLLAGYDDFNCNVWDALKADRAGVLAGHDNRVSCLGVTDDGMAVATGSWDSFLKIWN
T1 sequence (P63212 2-68 partner limits assumed): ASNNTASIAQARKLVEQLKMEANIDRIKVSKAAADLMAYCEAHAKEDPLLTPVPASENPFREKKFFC

Molecule: C[C@H](N)C(=O)NCC(=O)N[C@H]1CSSC[C@@H](C(=O)O)NC(=O)[C@H](CO)NC(=O)[C@H]([C@@H](C)O)NC(=O)[C@H](Cc2ccccc2)NC(=O)[C@H]([C@@H](C)O)NC(=O)[C@H](CCCCN)NC(=O)[C@H](Cc2c[nH]c3ccccc23)NC(=O)[C@H](Cc2ccccc2)NC(=O)[C@H](Cc2ccccc2)NC(=O)[C@H](CC(N)=O)NC(=O)[C@H](CCCCN)NC1=O [somatostatin]
K+ current induced over baseline [1]: approximately 20 pA

Molecule: DAVTDVIIKNNLKAC [A5 variant, DAVTDVIIKNNLKAC]
inhibition at 10 µM [2]: ≥ 80%

Molecule: OKT3: monoclonal antibody OKT3 (Ortho) stimulating the T cell receptor
[3H] incorporation into IP relative to control cells not exposed to OKT3 [3]: 157%

Molecule: TGFβ: Transforming growth factor-β, which stimulates the secretion of fibronectin
fibronectin secreted by cells exposed to TGFβ [4]: significant amount of fibronectin is secreted

Now from value to molecule:

inhibition at 10 µM [2]: ≥ 30%
Molecule: AAVTDVIIKNNLKDC [A1 variant, AAVTDVIIKNNLKDC]

inhibition at 10 µM [2]: ≥ 80%
Molecule: DAVTAVIIKNNLKDC [A2 variant, DAVTAVIIKNNLKDC]

inhibition at 10 µM [2]: ≥ 30%
Molecule: DAVTDVIIK [p9 variant, DAVTDVIIK]

inhibition at 10 µM [2]: ≥ 30%
Molecule: DAVTDVIIKANLKDC [A3 variant, DAVTDVIIKANLKDC]

inhibition at 10 µM [2]: ≥ 30%
Molecule: DAVTDVIIKNNLKD [del C variant, DAVTDVIIKNNLKD]
